Among the test systems are OVCAR-5 ovarian; IGROV1 ovarian; MDA-MB-435; NCI-H23 lung; BT-549 breast.
Assay in all cases: inhibition of tumour cell growth, NCI panel, 48 h

This note sets out measurements from PubChem BioAssay (NCI).

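Briefly, cells in 96-well plates were exposed to five compound concentrations for 48 h, and endpoints were estimated by linear interpolation. The concentration for full growth arrest is given as TGI.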

Take `COc1cc2c3c([nH]c2c(OC)c1OC)CCN(Cc1ccccc1)C3`: the TGI in the assay with OVCAR-5 ovarian was greater than 100 µM; in the assay with IGROV1 ovarian, greater than 100 µM; with MDA-MB-435 it was 35 µM; with NCI-H23 lung it was greater than 100 µM.

On to `NC(Cc1ccc(S(=O)(=O)O)cc1)C(=O)NC(Cc1ccc(S(=O)(=O)O)cc1)C(=O)NC(Cc1ccc(S(=O)(=O)O)cc1)C(=O)NC(Cc1ccc(S(=O)(=O)O)cc1)C(=O)O` (stereo not given), for which the TGI with OVCAR-5 ovarian, in the assay with IGROV1 ovarian, in the assay on BT-549 breast, in the assay on MDA-MB-435 and with NCI-H23 lung was greater than 100 µM in each case.

`c1ccc(N=C2c3ccsc3C(=Nc3ccccc3)c3ccsc32)cc1`: the TGI with OVCAR-5 ovarian amounted to 3.12 µM; with IGROV1 ovarian, 4 µM; in the assay with BT-549 breast it was 3.6 µM; with MDA-MB-435 it was 0.378 µM; in the assay with NCI-H23 lung, 3.03 µM.

Turning to `O=c1[nH]c2nc3ccccc3c(=O)n2/c1=C/c1ccco1`, the TGI in the assay with OVCAR-5 ovarian, with IGROV1 ovarian, in the assay on BT-549 breast, in the assay with MDA-MB-435 and in the assay with NCI-H23 lung was greater than 100 µM in each case.

Take `O=C1c2c(Br)sc(Br)c2[C@@H](NC(=O)C(F)(F)F)C1Br` (stereo not given in full): the TGI turned out to be 24.4 µM in the assay with OVCAR-5 ovarian; 10.5 µM in the assay on IGROV1 ovarian; 10.1 µM with BT-549 breast; 5.27 µM with MDA-MB-435; 7.14 µM with NCI-H23 lung.

On to `CCc1ccc2c(c1)N(CC(C)CN(C)C)c1ccccc1S2` (stereo not given), for which the TGI in the assay on OVCAR-5 ovarian is 19.9 µM; with IGROV1 ovarian, 15 µM; in the assay with BT-549 breast, 26.5 µM; in the assay with MDA-MB-435, 8.13 µM; in the assay with NCI-H23 lung, 21.8 µM.

As for `COc1ccc2c3c1O[C@H](c1ccc(O)cc1)[C@H]3[N+](C)(C)CC2`, the TGI in the assay on OVCAR-5 ovarian, with IGROV1 ovarian, in the assay on BT-549 breast, in the assay with MDA-MB-435 and with NCI-H23 lung was greater than 100 µM in each case.

For the molecule `COc1cc(Oc2nc3ccc(C(F)(F)F)cc3nc2-c2ccccc2)cc(OC)c1OC`, the TGI is greater than 100 µM with OVCAR-5 ovarian; greater than 100 µM in the assay on IGROV1 ovarian; 56 µM with BT-549 breast; greater than 100 µM in the assay on MDA-MB-435; greater than 100 µM in the assay on NCI-H23 lung.

Turning to `CCCc1[nH]c2ccccc2c1-c1c(CCC)[nH]c2ccccc12`, the TGI in the assay on OVCAR-5 ovarian was 33.6 µM; in the assay on IGROV1 ovarian, 32.4 µM; with BT-549 breast it was 35.6 µM; with MDA-MB-435 it was greater than 63.7 µM; in the assay on NCI-H23 lung it was 26.8 µM.

Take `C=C(C)[C@@H]1CC[C@]2(C(=O)OC)CC[C@]3(C)[C@H](CC[C@@H]4[C@@]5(C)CC[C@H](O)C(C)(C)[C@@H]5CC[C@]43C)[C@@H]12`: the TGI in the assay on OVCAR-5 ovarian is 55.4 µM; in the assay on IGROV1 ovarian it was 42.2 µM; in the assay on MDA-MB-435, 42.5 µM; with NCI-H23 lung it was greater than 100 µM.

Turning to `Clc1ccc2oc(CCc3ccccc3)nc2c1`, the TGI in the assay on OVCAR-5 ovarian, in the assay on IGROV1 ovarian, with BT-549 breast, in the assay with MDA-MB-435 and in the assay with NCI-H23 lung was greater than 100 µM each time.

In the case of `COC(=O)C1CCC(=O)N1C(c1ccc2c(c1)OCO2)c1cc(OC)c(OC)c(OC)c1` (stereo not given), the TGI with OVCAR-5 ovarian, in the assay on IGROV1 ovarian, with BT-549 breast, in the assay on MDA-MB-435 and with NCI-H23 lung was greater than 100 µM each time.

Consider `CCCn1c(=O)c(N2CCN(c3ccccc3)CC2)nc2sc3ccccc3c21`, for which the TGI in the assay with OVCAR-5 ovarian, with IGROV1 ovarian, in the assay with BT-549 breast, in the assay with MDA-MB-435 and in the assay with NCI-H23 lung was greater than 100 µM in each case.

With `CC(=O)OCC1OC(OCCCOP(=S)(OCCC#N)OCC2OC(n3ccc(N)nc3=O)C(OC(=O)c3ccccc3)C2OC(=O)c2ccccc2)C(OC(C)=O)C(OC(C)=O)C1OC(C)=O` (stereo not given), the TGI with OVCAR-5 ovarian, with IGROV1 ovarian, in the assay with BT-549 breast, with MDA-MB-435 and in the assay with NCI-H23 lung was greater than 100 µM throughout.

Turning to `CCCCNc1nc(NC2OCC(OC(C)=O)C(OC(C)=O)C2OC(C)=O)c(N=O)c(=O)n1C` (stereo not given), the TGI in the assay with OVCAR-5 ovarian, with IGROV1 ovarian, with BT-549 breast, with MDA-MB-435 and in the assay with NCI-H23 lung was greater than 10 µM in each case.

Regarding `COc1ccc(C2=NOC(N)(c3ccc(OC)cc3)C2)cc1` (stereo not given), the TGI in the assay on OVCAR-5 ovarian, in the assay with IGROV1 ovarian, in the assay on BT-549 breast, in the assay on MDA-MB-435 and with NCI-H23 lung was greater than 100 µM in each case.

Take `COC(=O)C(Cc1c[nH]c2ccccc12)N=C1Nc2ccncc2S(=O)(=O)N1c1cccc(OC(C)C)c1` (stereo not given): the TGI is greater than 100 µM with OVCAR-5 ovarian; greater than 100 µM in the assay on IGROV1 ovarian; greater than 100 µM in the assay on BT-549 breast; greater than 100 µM in the assay with MDA-MB-435; 85.8 µM in the assay with NCI-H23 lung.

Turning to `N#CCCC1(CCC#N)CCCCCCCCC(CCC#N)(CCC#N)C(O)C1O` (stereo not given), the TGI in the assay with OVCAR-5 ovarian, with IGROV1 ovarian, in the assay on MDA-MB-435 and with NCI-H23 lung was greater than 100 µM throughout.

In the case of `CC(C)(C)OC(=O)NCCCCC(N)NC(=O)c1ccccc1` (stereo not given), the TGI in the assay on OVCAR-5 ovarian, with IGROV1 ovarian, in the assay on BT-549 breast, with MDA-MB-435 and with NCI-H23 lung was greater than 100 µM in each case.

`CC1(C)CC(=O)c2c(nc3c4c([nH]c(-c5ccc(Br)cc5)c24)CC(C)(C)C3)C1`: the TGI with OVCAR-5 ovarian, in the assay on BT-549 breast, in the assay on MDA-MB-435 and in the assay on NCI-H23 lung was greater than 100 µM each time.

As for `C=CCC1(C)CCCN(Cc2ccccc2)C1=O` (stereo not given), the TGI with OVCAR-5 ovarian is greater than 10 µM; in the assay on IGROV1 ovarian it was 3.41 µM; in the assay with BT-549 breast it was greater than 10 µM; in the assay with MDA-MB-435, greater than 10 µM; in the assay with NCI-H23 lung it was greater than 10 µM.

On to `CC[C@@]1(O)C(=O)OCc2c1cc1n(c2=O)Cc2c-1nc1ccccc1c2/C=N\NC(=O)C(N)CCSC` (stereo not given in full), for which the TGI in the assay on OVCAR-5 ovarian is greater than 23.7 µM; with IGROV1 ovarian it was 5.63 µM; in the assay with MDA-MB-435 it was 3.58 µM; in the assay with NCI-H23 lung, 0.0526 µM.

Turning to `COc1cccc(C(=O)C#Cc2cnc(OC)nc2OC)c1`, the TGI with OVCAR-5 ovarian worked out at 8.05 µM; in the assay with IGROV1 ovarian it was 2.12 µM; in the assay with BT-549 breast it was 2.63 µM; with MDA-MB-435, 5.24 µM; with NCI-H23 lung, 5.5 µM.
